Data on four compounds can be found in patent US20130012466A1 (priority 2006, published 2013).

Like-named read-outs stand apart in the source and are kept apart here. Bounds are passed on as bounds.

Data set [1] has as its system SF-268. Kind of data set: Cytotoxicity assay (cell titer-glo and calcein AM), SF-268. Particulars: SF-268, % error in parentheses.
The subject of data set [2] is Du145. Kind of data set: Cytotoxicity assay (cell titer-glo and calcein AM), Du145. Particulars: Du145, % error in parentheses.
Data set [3] has as its system NCI-H460. Kind of data set: Cytotoxicity assay (cell titer-glo and calcein AM), NCI-H460. Particulars: NCI-H460, % error in parentheses.
The test system of data set [4] is ADR-RES. Description: Cytotoxicity assay (cell titer-glo and calcein AM), ADR-RES. Particulars: NCI/ADR RES, % error in parentheses.
The subject of data set [5] is A549. Description: Cytotoxicity assay (cell titer-glo and calcein AM), A549. Particulars: A549, % error in parentheses.
For data set [6], the system named is Hep3B. Kind of data set: Cytotoxicity assay (cell titer-glo and calcein AM), Hep3B. Particulars: Hep 3B, % error in parentheses.
Data set [7] has as its system SK-OV-3. Description: Cytotoxicity assay (cell titer-glo and calcein AM), SK-OV-3. Particulars: SK-OV-3, % error in parentheses.
The test system of data set [8] is MCF7. Description: Cytotoxicity assay (cell titer-glo and calcein AM), MCF7.
Data set [9] deals with mouse mammary normal epithelial control cell line. Kind of data set: Cytotoxicity assay, normal control cell line.
Setting [10] is: read-out: Cytotoxicity IC50, SF-268, CTG, CTG (cell titer-glo) readout.
Setting [11] is: read-out: Cytotoxicity IC50, SF-268, calcein, calcein AM readout.
Setting [12] is: read-out: Cytotoxicity IC50, Du145, CTG, CTG (cell titer-glo) readout.
Where [13] appears, read: read-out: Cytotoxicity IC50, Du145, calcein, calcein AM readout.
[14] abbreviates: read-out: Cytotoxicity IC50, NCI-H460, CTG, CTG (cell titer-glo) readout.
Where [15] appears, read: read-out: Cytotoxicity IC50, NCI-H460, calcein, calcein AM readout.
The mark [16] stands for this setting: read-out: Cytotoxicity IC50, NCI/ADR RES, CTG, CTG (cell titer-glo) readout.
The mark [17] stands for this setting: read-out: Cytotoxicity IC50, NCI/ADR RES, calcein, calcein AM readout.
The mark [18] stands for this setting: read-out: Cytotoxicity IC50, A549, CTG, CTG (cell titer-glo) readout.
[19] abbreviates: read-out: Cytotoxicity IC50, A549, calcein, calcein AM readout.
Setting [20] is: read-out: Cytotoxicity IC50, Hep 3B, CTG, CTG (cell titer-glo) readout.
Where [21] appears, read: read-out: Cytotoxicity IC50, Hep 3B, calcein, calcein AM readout.
Where [22] appears, read: read-out: Cytotoxicity IC50, SK-OV-3, CTG, CTG (cell titer-glo) readout.
Where [23] appears, read: read-out: Cytotoxicity IC50, SK-OV-3, calcein, calcein AM readout.
The mark [24] stands for this setting: read-out: Cytotoxicity IC50, MCF7, CTG, CTG (cell titer-glo) readout, % error in parentheses.
Setting [25] is: read-out: Cytotoxicity IC50, MCF7, calcein, calcein AM readout, % error in parentheses.
Where [26] appears, read: read-out: Cytotoxicity IC50, NmuMG, CTG, CTG (cell titer-glo) readout, % error in parentheses.
Setting [27] is: read-out: Cytotoxicity IC50, NmuMG, calcein, calcein AM readout, % error in parentheses.

With `COc1cc2c(c(OC)c1OC)-c1ccc(OC)c(=O)cc1[C@@H](NC(=O)CN(OC)[C@@H]1O[C@H](CCl)[C@H](O)[C@H](O)[C@H]1O)CC2` [Col41, 6-deoxy-6-chloro-D-galactoside], the IC50 in [1] (setting [10]) is 6.93 µM; in [1] (setting [11]) it was 7.87 µM; in [2] (setting [12]) it was 6.69 µM; in data set [2] (setting [13]), 6.74 µM; in data set [3] (setting [14]), 5.48 µM; in [3] (setting [15]), 2.31 µM. In addition, the IC50 in data set [4] (setting [16]) is 4.97 µM; in [4] (setting [17]), 3.68 µM; in [5] (setting [18]), 3.7 µM; in [5] (setting [19]), 1.07 µM; in [6] (setting [20]), 8.8 µM; in [6] (setting [21]), 5.99 µM. Also, the IC50 in [7] (setting [22]) is 5.61 µM; in data set [7] (setting [23]), 7.95 µM; in [8] (setting [24]), 3.36 µM; in data set [8] (setting [25]), 1.85 µM; in data set [9] (setting [26]), more than 10 µM; in [9] (setting [27]), 9.27 µM.
In the case of `COc1cc2c(c(OC)c1OC)-c1ccc(OC)c(=O)cc1[C@@H](NC(=O)CN(OC)[C@@H]1O[C@H](CBr)[C@H](O)[C@H](O)[C@H]1O)CC2` [Col42, 6-deoxy-6-bromo-D-galactoside], the IC50 in [1] (setting [10]) was 6.37 µM; in [1] (setting [11]), 3.31 µM; in data set [2] (setting [12]), 4.47 µM; in data set [2] (setting [13]), 4.26 µM; in [3] (setting [14]), 4.4 µM; in data set [3] (setting [15]), more than 10 µM. Also, the IC50 in data set [4] (setting [16]) was 2.49 µM; in data set [4] (setting [17]), 2.23 µM; in [5] (setting [18]), 3.94 µM; in data set [5] (setting [19]), 2.64 µM; in data set [6] (setting [20]), more than 10 µM; in data set [6] (setting [21]) it was more than 10 µM. Also, the IC50 in data set [7] (setting [22]) is 8.36 µM; in data set [7] (setting [23]), more than 10 µM; in data set [8] (setting [24]) it was 4.9 µM; in data set [8] (setting [25]) it was 3.69 µM; in [9] (setting [26]) it was 2.83 µM; in [9] (setting [27]), 2.92 µM.
On to `COc1cc2c(c(OC)c1OC)-c1ccc(OC)c(=O)cc1[C@@H](NC(=O)CN(OC)[C@@H]1O[C@H](CN=[N+]=[N-])[C@H](O)[C@H](O)[C@H]1O)CC2` [Col43, 6-deoxy-6-azido-D-galactoside], for which the IC50 was 5.15 µM in data set [1] (setting [10]); 8.46 µM in data set [1] (setting [11]); 4.87 µM in data set [2] (setting [12]); 4.19 µM in [2] (setting [13]); 5.01 µM in data set [3] (setting [14]); 2.36 µM in data set [3] (setting [15]). Moreover, the IC50 in data set [4] (setting [16]) is 5.04 µM; in data set [4] (setting [17]), 2.51 µM; in data set [5] (setting [18]) it was more than 10 µM; in data set [5] (setting [19]) it was more than 10 µM; in data set [6] (setting [20]), 5.3 µM; in data set [6] (setting [21]) it was 3.89 µM. Besides, the IC50 in [7] (setting [22]) was more than 10 µM; in data set [7] (setting [23]), 5.79 µM; in data set [8] (setting [24]), 4.91 µM; in data set [8] (setting [25]), 3.68 µM; in data set [9] (setting [26]), 3.82 µM; in data set [9] (setting [27]), 3.93 µM.
Consider `COc1cc2c(c(OC)c1OC)-c1ccc(OC)c(=O)cc1[C@@H](NC(=O)CN(OC)[C@@H]1O[C@H](CF)[C@@H](O)[C@H](O)[C@H]1O)CC2` [Col54, 6-deoxy-6-fluoro-D-glucoside], for which the IC50 was more than 10 µM in [1] (setting [10]); more than 10 µM in [1] (setting [11]); more than 10 µM in data set [2] (setting [12]); more than 10 µM in data set [2] (setting [13]); 3.82 µM in data set [3] (setting [14]); 4.9 µM in data set [3] (setting [15]). Besides, the IC50 in [4] (setting [16]) is more than 10 µM; in data set [4] (setting [17]), more than 10 µM; in [5] (setting [18]), more than 10 µM; in data set [5] (setting [19]), more than 10 µM; in data set [6] (setting [20]), more than 10 µM; in data set [6] (setting [21]) it was 4.66 µM. In addition, the IC50 in data set [7] (setting [22]), in data set [7] (setting [23]), in [8] (setting [24]), in [8] (setting [25]), in [9] (setting [26]) and in [9] (setting [27]) was more than 10 µM throughout.
